From patent US20130060013A1, “Compounds useful for treating neurodegenerative disorders” (SATORI PHARMACEUTICALS, INC., priority 2011, published 2013)
pIC50: −log10 of the molar value.

Tests used:
Format in all cases: cell-based
Conditions in all cases: Homo sapiens, compound 5 hours at 37° C., 1% DMSO, percent vehicle fit to 4 parameter curve
Aβ-42 = Aβ-42 level in conditioned media of 2B7 cells (MSD 3-PLEX ELISA)
Experimental: (§1) Assays were conducted to determine the ability of a Compound of Formula I to modulate […], and Aβ-38.
(§2) Plates with capture antibodies were blocked for 1-2 hours at room temperature with 150 μL of the manufactures blocking reagent.
(§3) Cultured 2B7 cells in 96 well plate with 250 uL of media per well until confluent;
(§4) Prepared serial dilutions of compounds in DMSO at 100× the final desired concentration;
(§5) Washed wells with 2B7 cells 1× with 250 uL of media;
(§6) Diluted DMSO stocks 1:100 into media:
(§7) Added 250 μL of media containing compounds (1% DMSO) to wells with 2B7 cells for 5 hours at 37° C.
(§8) Diluted conditioned media: 1 part media with 1% DMSO and 1 part blocking buffer;
(§9) 150 μL of the 250 μL of conditioned media were used.
(§10) Standard Curve Sample Prep:
(§11) Prepared per manufacturer's protocol (see above)
(§12) Seven point standard curve samples were prepared that contained Aβ-42, Aβ-40, and Aβ-38. The highest concentration of Aβ-42 and Aβ-38 was 3,000 pg/mL and the highest concentration of Aβ-40 was 10,000 pg/mL. Subsequent serial dilutions were 1:3 and the final composition of each sample was 1 part blocking buffer and 1 part cell medium containing 1% DMSO.
(§13) Overnight Sample Incubation:
(§14) Blocked plates are washed 5× with MSD wash buffer with a plate washer
(§15) 25 uL of detection antibody and blocker G reagent in MSD blocking solution is added
(§16) 25 uL of samples (1 part conditioned media containing 1% DMSO and 1 part MSD blocking buffer) are then added.
(§17) plates are incubated overnight at 4 degrees C. or 2 hours at room temp
(§18) Wash wells 5× with MSD wash buffer
(§19) Added 150 μL 2×MSD read buffer
(§20) A-Beta peptide levels for each peptide are calculated from the standard curve using the MSD software provided with the MSD 2400 Imager. Percent vehicle values for each compound dosage were then calculated and fit to a 4 parameter curve generating IC50 values.

Aβ-38 = Aβ-38 level in conditioned media of 2B7 cells (MSD 3-PLEX ELISA)
Experimental: as §1, §2, §3, §4, §5, §6, §7, §8, §9, §10, §11, §12, §13, §14, §15, §16, §17, §18, §19, §20

Aβ-40 = Aβ-40 level in conditioned media of 2B7 cells (MSD 3-PLEX ELISA)
Experimental: as §1
Human (6E10) Ab 3-PLEX elisa kits were purchased from Meso Scale Discovery Labs, 9328 Gaither Road, Gaithersburg, Md. 20877 (Catalog Number K15148E-3). Plates with capture antibodies were blocked for 1-2 hours at room temperature with 150 μL of the manufactures blocking reagent.
as §3, §4, §5, §6, §7, §8, §9, §10, §11, §12, §13, §14, §15, §16, §17, §18, §19, §20

Structure (SMILES) | pIC50 (Aβ-42) | pIC50 (Aβ-38) | pIC50 (Aβ-40)
CO[C@@H](C1C[C@@H](C)[C@H]2C(O1)[C@H](O)[C@@]1(C)C3CC[C@H]4C(C)(C)[C@@H](O[C@H]5CN(C)CCO5)CC[C@@]45CC35CC[C@]21C)C(C)(C)O (stereo partly drawn) | 5.00 to 6.00 | 5.00 to 6.00 | 5.00 to 6.00
CC(C)[C@@H](OC(=O)N1CCC1)[C@H]1C[C@@H](C)[C@H]2[C@H](O1)[C@H](O)[C@@]1(C)[C@@H]3CC[C@H]4C(C)(C)[C@@H](O[C@H]5CN(C(=O)CN6CCC6)CCO5)CCC45C[C@@]35CC[C@]21C (stereo partly drawn) | > 6.00 | > 6.00 | 5.00 to 6.00
CCO[C@@H]([C@H]1C[C@@H](C)[C@H]2[C@H](O1)[C@H](O)[C@@]1(C)[C@@H]3CC[C@H]4C(C)(C)[C@@H](O[C@H]5CN(Cc6cncs6)CCO5)CCC45C[C@@]35CC[C@]21C)C(C)(C)O (stereo partly drawn) | > 6.00 | 5.00 to 6.00 | 
CCO[C@@H]([C@H]1C[C@@H](C)[C@H]2[C@H](O1)[C@H](O)[C@@]1(C)[C@@H]3CC[C@H]4C(C)(C)[C@@H](O[C@H]5CN(Cc6nccs6)CCO5)CCC45C[C@@]35CC[C@]21C)C(C)(C)O (stereo partly drawn) | > 6.00 | 5.00 to 6.00 | 
CCO[C@@H]([C@H]1C[C@@H](C)[C@H]2[C@H](O1)[C@H](O)[C@@]1(C)[C@@H]3CC[C@H]4C(C)(C)[C@@H](O[C@H]5CN(Cc6cnn(C)c6)CCO5)CCC45C[C@@]35CC[C@]21C)C(C)(C)O (stereo partly drawn) | > 6.00 | 5.00 to 6.00 | 
CNC1CN(C(=O)O[C@H]2CCC34C[C@]35CC[C@]3(C)[C@@H]6[C@H](O[C@@H]([C@H](OC)C(C)(C)O)C[C@H]6C)[C@H](O)[C@@]3(C)[C@@H]5CC[C@H]4C2(C)C)C1 (stereo partly drawn) | > 6.00 | 5.00 to 6.00 | 
COCCN1CCO[C@@H](O[C@H]2CCC34C[C@]35CC[C@]3(C)[C@@H]6[C@H](O[C@@H]([C@H](OC)C(C)(C)OC)C[C@H]6C)[C@H](O)[C@@]3(C)[C@@H]5CC[C@H]4C2(C)C)C1 (stereo partly drawn) | > 6.00 | 5.00 to 6.00 | < 5.00
CCO[C@@H]([C@H]1C[C@@H](C)[C@H]2[C@H](O1)[C@H](O)[C@@]1(C)[C@@H]3CC[C@H]4C(C)(C)[C@@H](O[C@H]5CN(CC(=O)NCCOC)CCO5)CCC45C[C@@]35CC[C@]21C)C(C)(C)O (stereo partly drawn) | > 6.00 | 5.00 to 6.00 | 5.00 to 6.00
CO[C@@H]([C@H]1C[C@@H](C)[C@H]2[C@H](O1)[C@H](O)[C@@]1(C)[C@@H]3CC[C@H]4C(C)(C)[C@@H](O[C@H]5CN(CCN(C)C)CCO5)CCC45C[C@@]35CC[C@]21C)C(C)(C)OC (stereo partly drawn) | > 6.00 | > 6.00 | 5.00 to 6.00
CCO[C@@H]([C@H]1C[C@@H](C)[C@H]2[C@H](O1)[C@H](O)[C@@]1(C)[C@@H]3CC[C@H]4C(C)(C)[C@@H](O[C@H]5CN(c6cncc(F)c6)CCO5)CCC45C[C@@]35CC[C@]21C)C(C)(C)C (stereo partly drawn) | 5.00 to 6.00 | 5.00 to 6.00 | < 5.00
CCO[C@@H](C1C[C@@H](C)[C@H]2C(O1)[C@H](O)[C@@]1(C)C3CC[C@H]4C(C)(C)[C@@H](O[C@H]5CN(c6cnccn6)CCO5)CCC45C[C@@]35CC[C@]21C)C(C)(C)O (stereo partly drawn) | > 6.00 | > 6.00 | < 5.00
CCO[C@@H]([C@H]1C[C@@H](C)[C@H]2[C@H](O1)[C@H](O)[C@@]1(C)[C@@H]3CC[C@H]4C(C)(C)[C@@H](O[C@H]5CN(C6CN(C(C)=O)C6)CCO5)CCC45C[C@@]35CC[C@]21C)C(C)(C)O (stereo partly drawn) | > 6.00 | 5.00 to 6.00 | 5.00 to 6.00
CCO[C@@H](C1C[C@@H](C)[C@H]2C(O1)[C@H](O)[C@@]1(C)C3CC[C@H]4C(C)(C)[C@@H](O[C@H]5CN(c6ccccn6)CCO5)CCC45C[C@@]35CC[C@]21C)C(C)(C)O (stereo partly drawn) | 5.00 to 6.00 | 5.00 to 6.00 | 5.00 to 6.00
CCO[C@@H]([C@H]1C[C@@H](C)[C@H]2[C@H](O1)[C@H](O)[C@@]1(C)[C@@H]3CC[C@H]4C(C)(C)[C@@H](O[C@H]5CN(C6CN(C(C)C)C6)CCO5)CCC45C[C@@]35CC[C@]21C)C(C)(C)OC (stereo partly drawn) | > 6.00 | > 6.00 | 5.00 to 6.00
CCO[C@@H]([C@H]1C[C@@H](C)[C@H]2[C@H](O1)[C@H](O)[C@@]1(C)[C@@H]3CC[C@H]4C(C)(C)[C@@H](O[C@H]5CN(CC6CN(C)C6)CCO5)CCC45C[C@@]35CC[C@]21C)C(C)(C)OC (stereo partly drawn) | > 6.00 | > 6.00 | 5.00 to 6.00
CCO[C@@H](C1C[C@@H](C)[C@H]2C(O1)[C@H](O)[C@@]1(C)C3CC[C@H]4C(C)(C)[C@@H](O[C@H]5CN(CC(C)(C)N6CCOCC6)CCO5)CCC45C[C@@]35CC[C@]21C)C(C)(C)O (stereo partly drawn) | > 6.00 | > 6.00 | 5.00 to 6.00
CCO[C@@H]([C@H]1C[C@@H](C)[C@H]2[C@H](O1)[C@H](O)[C@@]1(C)[C@@H]3CC[C@H]4C(C)(C)[C@@H](O[C@H]5CN(C(C)(C)CN6CCOCC6)CCO5)CCC45C[C@@]35CC[C@]21C)C(C)(C)O (stereo partly drawn) | > 6.00 | > 6.00 | 5.00 to 6.00
CCO[C@@H]([C@H]1C[C@@H](C)[C@H]2[C@H](O1)[C@H](O)[C@@]1(C)[C@@H]3CC[C@H]4C(C)(C)[C@@H](O[C@H]5CN(C(C)(C)CN6CC(F)C6)CCO5)CCC45C[C@@]35CC[C@]21C)C(C)(C)O (stereo partly drawn) | > 6.00 | > 6.00 | 5.00 to 6.00
CC(=O)O[C@H]([C@H]1C[C@@H](C)[C@H]2[C@@H](O1)[C@@H](O)[C@@]1(C)[C@@H]3CC[C@H]4C(C)(C)[C@@H](O)CCC45C[C@@]35CC[C@]21C)C(C)(C)O (stereo partly drawn) | 5.00 to 6.00 |  | 5.00 to 6.00
CCO[C@@H]([C@H]1C[C@@H](C)[C@H]2[C@H](O1)[C@H](O)[C@@]1(C)[C@@H]3CC[C@H]4C(C)(C)[C@@H](OC(=O)C5CN(C6CCC6)C5)CCC45C[C@@]35CC[C@]21C)C(C)(C)O (stereo partly drawn) | > 6.00 | > 6.00 | 5.00 to 6.00
CCO[C@@H]([C@H]1C[C@@H](C)[C@H]2[C@H](O1)[C@H](O)[C@@]1(C)[C@@H]3CC[C@H]4C(C)(C)[C@@H](OC(=O)[C@H]5COCCN5C)CCC45C[C@@]35CC[C@]21C)C(C)(C)O (stereo partly drawn) | > 6.00 | > 6.00 | < 5.00
CCO[C@@H]([C@H]1C[C@@H](C)[C@H]2[C@H](O1)[C@H](O)[C@@]1(C)[C@@H]3CC[C@H]4C(C)(C)[C@@H](OC(=O)[C@@H]5COCCN5C)CCC45C[C@@]35CC[C@]21C)C(C)(C)O (stereo partly drawn) | > 6.00 | > 6.00 | 5.00 to 6.00
CCO[C@@H]([C@H]1C[C@@H](C)[C@H]2[C@H](O1)[C@H](O)[C@@]1(C)[C@@H]3CC[C@H]4C(C)(C)[C@@H](O[C@H]5CN(CCCO)CCO5)CCC45C[C@@]35CC[C@]21C)C(C)(C)O (stereo partly drawn) | > 6.00 | 5.00 to 6.00 | 5.00 to 6.00
CCO[C@@H]([C@H]1C[C@@H](C)[C@H]2[C@H](O1)[C@H](O)[C@@]1(C)[C@@H]3CC[C@H]4C(C)(C)C(O[C@H]5CN(CCN(CCCOCCOCCOCCCNC(=O)CCCCC6SC[C@@H]7NC(=O)N[C@H]67)CCNC(=O)CCC6(C)N=N6)CCO5)CC[C@@]45CC35CC[C@]21C)C(C)(C)O (stereo partly drawn) | > 6.00 |  | 5.00 to 6.00
